Measured values reported in patent US4374249A, “[4R]-3-(ω-Aroylpropionyl)-4-thiazolidinecarboxylic acids and esters” (American Cyanamid Company, priority 1980, dated 1983).

Target: T1, angiotensin converting enzyme (ACE) (Oryctolagus cuniculus, UniProt P12822)
T1 construct: The ACE was extracted from rabbit lung acetane powder; tissue Pel-Freez, Biol. Inc; host or cells: rabbit lung acetone powder, 40,000 g supernatant used as crude extract
T1 sequence (P12822 34-1310): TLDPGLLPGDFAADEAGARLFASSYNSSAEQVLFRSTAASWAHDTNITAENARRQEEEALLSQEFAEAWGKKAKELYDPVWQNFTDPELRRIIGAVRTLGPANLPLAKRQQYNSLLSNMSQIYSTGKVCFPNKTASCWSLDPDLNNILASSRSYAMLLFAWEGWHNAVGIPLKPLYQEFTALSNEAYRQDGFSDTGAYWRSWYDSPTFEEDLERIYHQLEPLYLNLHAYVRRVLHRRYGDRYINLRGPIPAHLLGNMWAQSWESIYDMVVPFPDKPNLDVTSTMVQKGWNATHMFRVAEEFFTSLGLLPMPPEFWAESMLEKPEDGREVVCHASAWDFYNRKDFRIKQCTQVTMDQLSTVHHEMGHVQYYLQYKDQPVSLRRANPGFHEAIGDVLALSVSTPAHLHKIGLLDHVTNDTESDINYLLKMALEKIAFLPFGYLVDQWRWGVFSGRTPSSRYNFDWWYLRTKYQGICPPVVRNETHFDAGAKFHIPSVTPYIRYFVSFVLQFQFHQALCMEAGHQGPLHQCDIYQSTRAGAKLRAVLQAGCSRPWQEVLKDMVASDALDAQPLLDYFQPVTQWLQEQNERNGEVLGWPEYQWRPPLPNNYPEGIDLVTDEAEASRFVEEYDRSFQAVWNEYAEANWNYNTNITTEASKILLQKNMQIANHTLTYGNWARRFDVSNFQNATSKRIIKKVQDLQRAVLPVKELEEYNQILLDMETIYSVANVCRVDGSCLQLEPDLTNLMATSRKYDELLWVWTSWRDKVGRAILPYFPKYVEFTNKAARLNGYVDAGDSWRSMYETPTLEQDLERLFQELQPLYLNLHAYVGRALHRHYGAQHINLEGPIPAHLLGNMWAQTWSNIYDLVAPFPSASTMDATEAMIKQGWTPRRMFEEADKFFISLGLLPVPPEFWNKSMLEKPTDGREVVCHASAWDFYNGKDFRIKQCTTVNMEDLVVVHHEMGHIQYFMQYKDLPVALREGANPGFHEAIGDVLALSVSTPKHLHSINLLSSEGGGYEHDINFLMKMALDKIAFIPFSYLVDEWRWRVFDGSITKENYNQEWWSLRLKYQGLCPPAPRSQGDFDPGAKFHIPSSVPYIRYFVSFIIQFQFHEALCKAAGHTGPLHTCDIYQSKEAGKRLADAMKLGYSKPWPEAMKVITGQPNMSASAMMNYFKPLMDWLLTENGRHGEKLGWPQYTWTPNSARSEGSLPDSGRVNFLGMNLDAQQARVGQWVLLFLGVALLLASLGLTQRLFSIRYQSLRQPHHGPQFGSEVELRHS
Assay: Spectrophotometric Assay for Angiotensin Converting Enzyme Inhibitors (in vitro inhibition of ACE, benzoyl-glycyl-histidyl-leucine substrate)
Type: biochemical
Settings: crude ACE extract from rabbit lung; 30 minutes at 37° C.; hippuric acid absorbance at 228 nm
Experimental: Spectrophotometric Assay for Angiotensin Converting Enzyme Inhibitors
The in vitro activity for inhibition of the angiotensin converting enzyme (ACE) was measured by the method of Cushman, D. W. and Cheung, H. S., Biochem. Pharmacol., 20, 1637-1648 (1971), using benzoyl-glycyl-histidyl-leucine as the substrate. The reaction mixture consisted of 50 μl. of potassium phosphate (500 mM., […]), 30 μl. of sodium chloride (2500 mM.), 25 μl. of substrate (50 mM.), 30 to 50 μl. of the crude extract of ACE, 10 μl. of test compound (2.5 mM.) or vehicle and a suitable amount of distilled water to give a total volume of 250 μl. This reaction mixture was incubated for 30 minutes at 37° C. and the reaction was then terminated by the addition of 250 μl. of 1 N hydrochloric acid. The hippuric acid was then extracted with 1.5 ml. of ethyl acetate by vortex mixing for 15 seconds. After centrifugation, one ml. of the ethyl acetate layer was pipetted into a new tube and evaporated to dryness. The extracted hippuric acid was then dissolved in one ml. of water and the amount of this acid was then measured by its absorbance at 228 nm. The ACE was extracted from rabbit lung acetane powder (Pel-Freez, Biol. Inc.) by blending 5 g. of the powder in 50 ml. of phosphate buffer (50 mM., pH 8.3) and then centrifuging at 40,000 g for 40 minutes. The supernatant was then kept at 5° C. and used as the enzyme source. The activity of the ACE inhibitor was calculated as the percent inhibition of ACE activity compared to the control value of that particular assay. A full dose-response inhibitory curve is then performed to determine the IC50 value which may be defined as the molar concentration of a compound that will inhibit ACE activity by 50%.

Row | IC50 [µM] | SMILES
1 | 0.067 | CC(=O)SC(C(=O)c1ccccc1)[C@@H](C)C(=O)N1CSC[C@H]1C(=O)O (stereo partly drawn) [[4R-(4R*,2'S*)]-3-(3-Acetylthio-3-benzoyl-2-methylpropionyl)-4-thiazolidinecarboxylic acid]
2 | 8.4 | CC(=O)SC(CC(=O)c1ccccc1)C(=O)N1CSC[C@H]1C(=O)O (stereo partly drawn) [[4R]-3-(2-Acetylthio-3-benzoylpropionyl)-4-thiazolidinecarboxylic acid]
3 | 16.8 | CC(=O)SC(CC(=O)N1CSC[C@H]1C(=O)OCc1c(C)cc(C)cc1C)C(=O)c1ccc(F)cc1 (stereo partly drawn) [[4R]-3-[3-Acetylthio-3-(4-fluorobenzoyl)propionyl]-4-thiazolidinecarboxylicacid, 2,4,6-trimethylbenzyl ester]
